Experiments:
rabbit eye pupil = experiment: Mydriasis assay (rabbit eye pupil diameter); assay type: in vivo; conditions: for Change in Pupil Diameter as a function of time: error ± 0.5 mm; for mydriatic potency compared to the parent drugs: compared to parent drugs tropicamide and scopolamine
Method: The rabbit eye pupil diameter was measured with a clear plastic ruler after exposing the eye to 50 W light at a distance of 6 in. Exposure to light contracts the pupil to approximately 3 mm diameter.
The addition of the compounds to be tested is done in a maximum volume of 150 μl, in 50 mM NaPO4, pH 6.8, 100 mM NaCl. The sample was applied in the upper corner of the eye and was allowed to completely cover the cornea after each addition. Pupil dilation was measured at 3 separate intervals following the procedure outlined above. Buffer controls were run in one eye and the anticholinergic in the other.

[1] = target: T1, human sweat β-glucuronidase (Homo sapiens, UniProt P08236); experiment: Hydrolysis of model glucuronides by human sweat glucuronidase; assay type: biochemical; conditions: for Hydrolysis of Glucuronides: dialyzed human sweat, initial rate, enzyme diluted so that PGA rates are equivalent
T1 sequence (P08236 23-651): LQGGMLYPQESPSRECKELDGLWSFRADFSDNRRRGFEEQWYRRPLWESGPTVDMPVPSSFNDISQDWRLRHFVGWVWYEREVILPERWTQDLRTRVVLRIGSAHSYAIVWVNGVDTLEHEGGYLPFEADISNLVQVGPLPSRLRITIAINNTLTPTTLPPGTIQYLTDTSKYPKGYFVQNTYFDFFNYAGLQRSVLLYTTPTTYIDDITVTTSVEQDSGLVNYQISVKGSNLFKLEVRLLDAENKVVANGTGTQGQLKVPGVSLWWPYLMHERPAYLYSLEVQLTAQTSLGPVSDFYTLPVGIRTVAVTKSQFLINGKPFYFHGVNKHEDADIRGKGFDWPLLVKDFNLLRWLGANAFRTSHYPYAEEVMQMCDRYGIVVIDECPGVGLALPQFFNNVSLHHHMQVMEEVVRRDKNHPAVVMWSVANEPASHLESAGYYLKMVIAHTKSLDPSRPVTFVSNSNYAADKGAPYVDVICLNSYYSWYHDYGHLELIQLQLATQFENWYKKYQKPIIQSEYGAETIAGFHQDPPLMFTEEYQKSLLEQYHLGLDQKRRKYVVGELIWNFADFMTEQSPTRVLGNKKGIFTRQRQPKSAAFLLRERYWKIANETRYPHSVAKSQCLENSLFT
Method: Sweat was obtained from human volunteers by collection from the axilla during high temperature (>41° C.) in a sauna. The sweat was clarified by centrifugation at 20,000 g for 30 min. This clarified sweat was then either utilized directly in hydrolysis studies or dialyzed against 100 mM NaCl, 50 mM sodium acetate, pH 5.0 prior to use. […] Most of the data presented herein was generated with dialyzed preparations.
β-glucuronidase activity was assayed in the sweat by hydrolysis of phenolphthalein glucuronide. Briefly, this assay was carried out as follows: to an aliquot of undialyzed sweat was added an equal volume of buffer comprising 100 mM NaCl, 100 mM sodium acetate, pH 5.0 (this step was unnecessary when assaying dialyzed sweat) followed by 10 μl of a 100 mg/ml phenolphthalein glucuronide solution (Sigma Chemical, St. Louis, Mo.). The reaction mixture was then incubated at 37° C. After 30 min an aliquot of the reaction mixture was added to a five-fold excess of a 0.2 M glycine buffer, pH 10.4 and the absorbance wa determined at 540 nm. The activity was determined by comparison to a known amount of E. coli β-glucuronidase (Sigma, Type VII) run under standard conditions.
A variety of glucuronides were synthesized and tested for their ability to be hydrolyzed by human sweat glucuronidase. […] These hydrolysis reactions were all carried out under similar conditions, and the extent of hydrolysis was determined at the various time points by HPLC analysis of the reaction mixture.
Generally, dialyzed preparations of sweat were used for the reasons discussed earlier. […] A typical experiment was done by bringing the enzyme solution (50-100 U/ml) to 0.01 to 0.05% in the glucuronide to be tested. A zero time aliquot was withdrawn and stored frozen; the remaining reaction mixture was incubated at 37° C. Aliquots were taken at various time points for rate determinations. These aliquots were stored at -20° C. until analysis by HPLC.
High pressure liquid chromatography of the aliquots drawn from the hydrolysis reactions allowed the separation of the aglycon from the glucuronide in all cases. The nmoles released at any given time were calculated from the absorption at 254 nm and the known extinction coefficient of the compound. Rates are given as initial rates which are determined by plotting nmoles aglycon vs. time.

[2] = Solubility of aglycon in the enzymatic reaction mixture; assay type: physicochemical; conditions: aqueous tris hydrochloride reaction mixture
Method: Due to the low solubility of this compound, excess solid material is added to the reaction mixture so that a saturated solution of aglycon is maintained throughout the reaction. The glucuronide is isolated by HPLC with the reversed phase system described in Example 2. It is characterized by hydrolysis with excess E. coli β-glucuronidase (1000 U/ml, pH 6.8) (Sigma, Type […]) for 1 hr at 37° C. which quantitatively releases the aglycon as assayed by HPLC.
The glucuronide of scopolamine p-hydroxybenzoate is synthesized with uridine 5'-diphosphoglucuronic acid transferase by first removing all or substantially all of the esterase activity from liver microsomes. These esterases are removed since they will hydrolyze the aglycon. This operation can be done by washing the liver microsomes in a suitable buffer, as described herein, or by other equivalent washing means known to persons in this art. Advantageously, an esterase inhibitor can be used to supplement the washing of the microsomes. For example, a competitive inhibitor of the esterases such as lysine ethyl ester, and the like, or a suicide substrate such as phenylmethylsulfonyl fluoride, and the like, can be used. […] The glucuronide is characterized by hydrolysis with excess E. coli β-glucuronidase (100 U/ml, pH 6.8) (Sigma, Type VII) for 1 hr at 37° C. which quantitatively releases the aglycon as assayed by HPLC.

[3] = target: T2, bovine liver β-glucuronidase (Bos taurus, UniProt A3KMY8); experiment: Hydrolysis of glucuronides by bovine liver β-glucuronidase; assay type: biochemical; conditions: bovine liver enzyme, pH 5.0; initial rate; enzyme diluted so that PGA rates are equivalent
T2 sequence (A3KMY8 24-652): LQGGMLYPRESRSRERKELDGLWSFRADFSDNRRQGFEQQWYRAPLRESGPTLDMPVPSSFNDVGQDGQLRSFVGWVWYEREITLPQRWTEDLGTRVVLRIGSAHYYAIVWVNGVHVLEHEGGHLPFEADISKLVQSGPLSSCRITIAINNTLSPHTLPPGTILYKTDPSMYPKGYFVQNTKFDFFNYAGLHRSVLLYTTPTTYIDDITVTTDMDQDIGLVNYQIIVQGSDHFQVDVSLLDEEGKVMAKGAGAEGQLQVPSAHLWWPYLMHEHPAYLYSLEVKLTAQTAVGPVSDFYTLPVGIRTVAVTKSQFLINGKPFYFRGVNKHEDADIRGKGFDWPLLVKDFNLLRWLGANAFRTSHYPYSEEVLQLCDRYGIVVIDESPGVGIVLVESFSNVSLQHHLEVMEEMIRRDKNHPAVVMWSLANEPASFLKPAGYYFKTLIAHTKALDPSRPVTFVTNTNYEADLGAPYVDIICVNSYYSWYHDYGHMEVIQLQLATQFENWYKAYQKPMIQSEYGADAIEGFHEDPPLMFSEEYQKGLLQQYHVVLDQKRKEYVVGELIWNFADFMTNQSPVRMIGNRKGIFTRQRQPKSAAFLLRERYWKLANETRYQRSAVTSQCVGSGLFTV

E. coli β-glucuronidase = E. coli β-glucuronidase (Escherichia coli, UniProt P05804); experiment: Hydrolysis of glucuronides by E. coli β-glucuronidase; assay type: biochemical; conditions: pH 6.8; for Hydrolysis of Glucuronides: E. coli enzyme, initial rate, enzyme diluted so that PGA rates are equivalent
[4] = levels 100-fold greater than required to effect a strong mydriatic response with the aglycon

E. coli β-glucuronidase, sequence (P05804 whole entry): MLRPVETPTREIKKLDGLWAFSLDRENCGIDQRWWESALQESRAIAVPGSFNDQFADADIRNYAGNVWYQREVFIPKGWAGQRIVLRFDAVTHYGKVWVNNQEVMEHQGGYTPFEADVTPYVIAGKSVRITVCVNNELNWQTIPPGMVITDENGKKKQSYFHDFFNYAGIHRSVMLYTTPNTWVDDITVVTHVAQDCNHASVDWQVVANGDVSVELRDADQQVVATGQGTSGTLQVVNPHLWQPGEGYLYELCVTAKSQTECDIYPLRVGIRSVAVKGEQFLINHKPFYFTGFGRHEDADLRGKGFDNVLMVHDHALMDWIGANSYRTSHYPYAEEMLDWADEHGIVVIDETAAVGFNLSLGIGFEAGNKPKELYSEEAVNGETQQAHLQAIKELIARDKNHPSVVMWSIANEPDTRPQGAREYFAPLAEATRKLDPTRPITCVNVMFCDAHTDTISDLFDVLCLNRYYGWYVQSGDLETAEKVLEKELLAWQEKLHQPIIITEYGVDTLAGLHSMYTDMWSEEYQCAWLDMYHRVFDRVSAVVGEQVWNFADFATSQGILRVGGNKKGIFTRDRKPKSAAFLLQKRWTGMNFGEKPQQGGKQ

Question: What does the source list for `CN1[C@@H]2C[C@@H](OC(=O)[C@H](CO)c3ccccc3)C[C@H]1[C@@H]1O[C@@H]12` [Scopolamine]?
Answer: mydriatic response (in words) (rabbit eye pupil; 0.6 μg): nonmydriatic; Change in Pupil Diameter as a function of time (rabbit eye pupil; 0.6 ug applied, in 15 min): 0 mm; Change in Pupil Diameter as a function of time (rabbit eye pupil; 6 ug applied, in 15 min): 6 mm; Change in Pupil Diameter as a function of time (rabbit eye pupil; 60 ug applied, in 10 min): 6 mm

Question: For `COC(=O)C(CO[C@@H]1O[C@H](C(=O)O)[C@@H](O)[C@H](O)[C@H]1O)c1ccccc1` (stereo partly drawn) [Tropic acid methyl ester glucuronide, Tropic Acid Methyl Ester-O-β-D-Glucuronide], which “Hydrolysis of Glucuronides” value ([1]; pH 5.0) is on record?
Answer: The value was 2.6 nmoles/hour/100 units.

Question: What does the source list for `CCN(Cc1ccncc1)C(=O)C(COC(=O)c1ccc(O[C@@H]2O[C@H](C(=O)O)[C@@H](O)[C@H](O)[C@H]2O)cc1)c1ccccc1` (stereo partly drawn) [Tropicamide p-Hydroxybenzoyl-O-β-D-Glucuronic Acid]?
Answer: Change in Pupil Diameter as a function of time (rabbit eye pupil; 600 ug applied, in 25 min): 0 mm; mydriatic response (in words) (rabbit eye pupil; [4]): No mydriatic response; Hydrolysis of Glucuronides ([1]; pH 5.0): 36 nmoles/hour/100 units

Question: Which results are given for `CCN(Cc1ccncc1)C(=O)C(COC(=O)c1ccc(O)cc1)c1ccccc1` (stereo not shown) [Tropicamide p-hydroxybenzoate, tropicamide p-hydroxybenzoate]?
Answer: mydriatic response (in words) (rabbit eye pupil; 5.5 μg): clearly mydriatic; Change in Pupil Diameter as a function of time (rabbit eye pupil; 5.5 ug applied, in 35 min): 4 mm; mydriatic potency compared to the parent drugs (rabbit eye pupil): potent mydriatic agents; solubility [2]: low

Question: For `CCN(Cc1ccncc1)C(=O)C(CO[C@@H]1O[C@H](C(=O)O)[C@@H](O)[C@H](O)[C@H]1O)c1ccccc1` (stereo partly drawn) [Tropicamide glucuronide, tropicamide O-β-D-glucuronide], which “Change in Pupil Diameter as a function of time” value (“Change in Pupil Diameter” for short) (rabbit eye pupil; 600 ug applied, in 30 min) is on record?
Answer: The value was 0 mm.

Question: What about the “Hydrolysis of Glucuronides” value [3] of the same compound?
Answer: The value was 24 nmoles/hour/100 units.

Question: What about the “Hydrolysis of Glucuronides” value ([1]; pH 5.0) of the same compound?
Answer: Its value is 1.6 nmoles/hour/100 units.

Question: And the “Hydrolysis by human sweat enzyme (in words)” value ([1]; pH 5.0)?
Answer: The value was “Trace amounts”.

Question: And the “Hydrolysis by human sweat enzyme (in words)” value ([1]; pH 6.8)?
Answer: The value was “no hydrolysis”.

Question: What about the “Hydrolysis of Glucuronides” value (E. coli β-glucuronidase) of the same compound?
Answer: The value was over 150 nmoles/hour/100 units.

Question: What about the “Hydrolysis by E. coli enzyme (in words)” value (E. coli β-glucuronidase) of the same compound?
Answer: Its value is “rapidly hydrolyzes”.

Question: For `CCN(Cc1ccncc1)C(=O)C(CO)c1ccccc1` (stereo not shown) [Tropicamide], which “mydriatic response (in words)” value (rabbit eye pupil; 20 μg) is on record?
Answer: Its value is “weak response”.

Question: With `O=C1OC(c2ccc(O)cc2)(c2ccc(O[C@@H]3O[C@H](C(=O)O)[C@@H](O)[C@H](O)[C@H]3O)cc2)c2ccccc21` (stereo partly shown) [Phenolphthalein glucuronide, phenolphthalein glucuronide] as the compound, how does the “Hydrolysis of Glucuronides” value [3] read?
Answer: Its value is 200 nmoles/hour/100 units.

Question: And the “Hydrolysis of Glucuronides” value ([1]; pH 5.0)?
Answer: The value was 200 nmoles/hour/100 units.

Question: And the “Hydrolysis of Glucuronides” value (E. coli β-glucuronidase)?
Answer: The value was 200 nmoles/hour/100 units.

Question: Which results are given for `CN1C2CC(OC(=O)C(COC3OC(C(=O)O)C(O)C(O)C3O)c3ccccc3)CC1C1OC12` [Scopolamine glucuronide, scopolamine O-β-D-glucuronide]?
Answer: Hydrolysis of Glucuronides [3]: 25 nmoles/hour/100 units; Hydrolysis of Glucuronides ([1]; pH 5.0): < 0.5 nmoles/hour/100 units; Hydrolysis by human sweat enzyme (in words) ([1]; pH 5.0): no scopolamine could be detected; Hydrolysis by human sweat enzyme (in words) ([1]; pH 6.8): no hydrolysis; Hydrolysis of Glucuronides (E. coli β-glucuronidase): 60 nmoles/hour/100 units; Hydrolysis by E. coli enzyme (in words) (E. coli β-glucuronidase): lower, but significant, activity

Question: With `CN1C2CC(OC(=O)C(COC(=O)c3ccc(O)cc3)c3ccccc3)CC1C1OC12` (stereo not shown) [Scopolamine p-hydroxybenzoate, Scopolamine p-Hydroxybenzoate] as the compound, how does the “mydriatic response (in words)” value (rabbit eye pupil; 0.1 μg) read?
Answer: The value was “sufficient for a response”.

Question: What about the “Change in Pupil Diameter” value (rabbit eye pupil; 0.1 ug applied, in 15 min) of the same compound?
Answer: Its value is 7 mm.

Question: And the “mydriatic potency compared to the parent drugs” value (rabbit eye pupil)?
Answer: The value was “potent mydriatic agents”.

Question: What about the solubility [2] of the same compound?
Answer: Its solubility is “low”.

Question: For `CN1C2CC(OC(=O)C(COC(=O)c3ccc(OC4OC(C(=O)O)C(O)C(O)C4O)cc3)c3ccccc3)CC1C1OC12` [Scopolamine p-Hydroxybenzoy-O-β-D-Glucuronic Acid], which “Change in Pupil Diameter” value (rabbit eye pupil; 11.4 ug applied, in 45 min) is on record?
Answer: Its value is 0 mm.

Question: What about the “mydriatic response (in words)” value (rabbit eye pupil; [4]) of the same compound?
Answer: Its value is “No mydriatic response”.

Question: And the “Hydrolysis of Glucuronides” value ([1]; pH 5.0)?
Answer: Its value is 40 nmoles/hour/100 units.

Question: With `COC(=O)Cc1ccc(O[C@@H]2O[C@H](C(=O)O)[C@@H](O)[C@H](O)[C@H]2O)cc1` [p-Hydroxyphenylacetic Acid Methyl Ester-O-β-D-Glucuronide] as the compound, how does the “Hydrolysis of Glucuronides” value ([1]; pH 5.0) read?
Answer: The value was 37 nmoles/hour/100 units.

Source: patent US4546096A, “Anticholinergic glucuronides and antiperspirant use thereof” (Repligen Corporation, priority 1984, dated 1985)
